Assays:
Format in all cases: functional, cell-based
[1] = test system: HeLa; assay: Cytotoxicity against human HeLa cells assessed as cell viability after 48 hrs by MTT assay
[2] = test system: MCF7; assay: Cytotoxicity against human MCF7 cells assessed as cell viability after 48 hrs by MTT assay; conditions: MCF7, 48 h
[3] = test system: A549; assay: Cytotoxicity against human A549 cells assessed as cell viability after 48 hrs by MTT assay; conditions: A549, 48 h
[4] = Cytotoxicity against human DU145 cells assessed as cell viability after 48 hrs by MTT assay; conditions: DU-145, 48 h
[5] = test system: HepG2; assay: Cytotoxicity against human HepG2 cells assessed as cell viability after 48 hrs by MTT assay; conditions: HepG2, 48 h

Compound	IC50 [1] [µM]	IC50 [2] [µM]	IC50 [3] [µM]	IC50 [4] [µM]	IC50 [5] [µM]
CC(C)=CCC/C(C)=C/CC/C(C)=C/CC[C@@H]1[C@@]2(C)C/C(=C\c3ccc(OCc4cn(-c5cccc(O)c5)nn4)cc3)C(=O)C(C)(C)[C@@H]2CC[C@@]1(C)O	158	45.5	110	40.6	26.9
CC(C)=CCC/C(C)=C/CC/C(C)=C/CC[C@@H]1[C@@]2(C)C/C(=C\c3ccc(OCc4cn(-c5cccc(C(F)(F)F)c5)nn4)cc3)C(=O)C(C)(C)[C@@H]2CC[C@@]1(C)O	17.3	13.8	23.2	9.33	27.6
CC(C)=CCC/C(C)=C/CC/C(C)=C/CC[C@@H]1[C@@]2(C)C/C(=C\c3ccc(OCc4cn(-c5cccc([N+](=O)[O-])c5)nn4)cc3)C(=O)C(C)(C)[C@@H]2CC[C@@]1(C)O	32.9	79.4	126	46.4	117
CC(C)=CCC/C(C)=C/CC/C(C)=C/CC[C@@H]1[C@@]2(C)C/C(=C\c3ccc(OCc4cn(-c5c(Cl)cc([N+](=O)[O-])cc5Cl)nn4)cc3)C(=O)C(C)(C)[C@@H]2CC[C@@]1(C)O	36.9	27.1	34.7	20.9	25.1
COc1cccc(-n2cc(CO/N=C3\CC[C@]4(C)[C@@H](CC/C=C(\C)CC/C=C(\C)CCC=C(C)C)[C@](C)(O)CC[C@H]4C3(C)C)nn2)c1	22.9	25.4	21.7	30.5	51.3
CC(C)=CCC/C(C)=C/CC/C(C)=C/CC[C@@H]1[C@@]2(C)C/C(=C\c3ccc(OCc4cn(-c5ccc(Cl)cc5)nn4)cc3)C(=O)C(C)(C)[C@@H]2CC[C@@]1(C)O	50.7	72.4	83.2	79.4	123
CC(C)=CCC/C(C)=C/CC/C(C)=C/CC[C@@H]1[C@@]2(C)CC/C(=N\OCc3cn(-c4ccc(F)c(Cl)c4)nn3)C(C)(C)[C@@H]2CC[C@@]1(C)O	20.1	31.4	21.4	26.9	58.9
CC(C)=CCC/C(C)=C/CC/C(C)=C/CC[C@@H]1[C@@]2(C)C/C(=C\c3ccc(OCc4cn(-c5ccc(F)cc5)nn4)cc3)C(=O)C(C)(C)[C@@H]2CC[C@@]1(C)O	126	42	55.2	33.6	35.9
COc1cccc2c1C(=O)c1c(O)c3c(c(O)c1C2=O)C[C@@](O)(C(=O)CO)C[C@@H]3O[C@H]1C[C@H](N)[C@H](O)[C@H](C)O1 [DOXORUBICIN]	2.57	–	2.81	1.41	3.01
CC(C)=CCC/C(C)=C/CC/C(C)=C/CC[C@@H]1[C@@]2(C)CCC(=O)C(C)(C)[C@@H]2CC[C@@]1(C)O	18.3	16.2	12	13.2	26.6
CC(C)=CCC/C(C)=C/CC/C(C)=C/CC[C@@H]1[C@@]2(C)C/C(=C\c3ccc(OCc4cn(-c5ccccc5C#N)nn4)cc3)C(=O)C(C)(C)[C@@H]2CC[C@@]1(C)O	100	29.9	61.6	25.1	63.1
CC(C)=CCC/C(C)=C/CC/C(C)=C/CC[C@@H]1[C@@]2(C)CC/C(=N\OCc3cn(-c4cccc([N+](=O)[O-])c4)nn3)C(C)(C)[C@@H]2CC[C@@]1(C)O	18.4	20.7	14.8	17.4	22
CC(C)=CCC/C(C)=C/CC/C(C)=C/CC[C@@H]1[C@@]2(C)CC/C(=N\OCc3cn(-c4ccc(Cl)cc4)nn3)C(C)(C)[C@@H]2CC[C@@]1(C)O	14.8	12.4	12.3	16.2	19.9
CC(C)=CCC/C(C)=C/CC/C(C)=C/CC[C@@H]1[C@@]2(C)CC/C(=N\OCc3cn(-c4ccc(F)cc4)nn3)C(C)(C)[C@@H]2CC[C@@]1(C)O	21.4	25.9	18	21.6	63.1
CC(C)=CCC/C(C)=C/CC/C(C)=C/CC[C@@H]1[C@@]2(C)C/C(=C\c3ccc(OCc4cn(-c5ccccc5)nn4)cc3)C(=O)C(C)(C)[C@@H]2CC[C@@]1(C)O	36.3	23	100	21	126
CC(C)=CCC/C(C)=C/CC/C(C)=C/CC[C@@H]1[C@@]2(C)C/C(=C\c3ccc(OCc4cn(-c5ccc(F)c(Cl)c5)nn4)cc3)C(=O)C(C)(C)[C@@H]2CC[C@@]1(C)O	43	46.5	46.6	28.4	40.2
CC(C)=CCC/C(C)=C/CC/C(C)=C/CC[C@@H]1[C@@]2(C)C/C(=C\c3ccc(OCc4cn(-c5ccncc5)nn4)cc3)C(=O)C(C)(C)[C@@H]2CC[C@@]1(C)O	77.6	37.5	34	25.7	105
CC(C)=CCC/C(C)=C/CC/C(C)=C/CC[C@@H]1[C@@]2(C)CC/C(=N\OCc3cn(-c4cccc(O)c4)nn3)C(C)(C)[C@@H]2CC[C@@]1(C)O	13.5	9.9	12.8	17.5	21.2
CC(C)=CCC/C(C)=C/CC/C(C)=C/CC[C@@H]1[C@@]2(C)CC/C(=N\OCc3cn(-c4ccc(F)c(F)c4F)nn3)C(C)(C)[C@@H]2CC[C@@]1(C)O	26.2	32.2	26.9	30.4	37.7
CC(C)=CCC/C(C)=C/CC/C(C)=C/CC[C@@H]1[C@@]2(C)CC/C(=N\OCc3cn(-c4ccncc4)nn3)C(C)(C)[C@@H]2CC[C@@]1(C)O	18.8	12.6	13	17.4	22
COc1cccc(-n2cc(COc3ccc(/C=C4\C[C@]5(C)[C@@H](CC/C=C(\C)CC/C=C(\C)CCC=C(C)C)[C@](C)(O)CC[C@H]5C(C)(C)C4=O)cc3)nn2)c1	16.2	16.6	45.7	14.5	50.1
CC(C)=CCC/C(C)=C/CC/C(C)=C/CC[C@@H]1[C@@]2(C)C/C(=C\c3ccc(OCc4cn(-c5cccc(Br)c5)nn4)cc3)C(=O)C(C)(C)[C@@H]2CC[C@@]1(C)O	37.1	61	33.8	40.5	23.7
CC(C)=CCC/C(C)=C/CC/C(C)=C/CC[C@@H]1[C@@]2(C)CC/C(=N\OCc3cn(-c4cccc(C(F)(F)F)c4)nn3)C(C)(C)[C@@H]2CC[C@@]1(C)O	12.5	21.4	12.9	11.8	22.7
COc1cc(OC)c(-n2cc(COc3ccc(/C=C4\C[C@]5(C)[C@@H](CC/C=C(\C)CC/C=C(\C)CCC=C(C)C)[C@](C)(O)CC[C@H]5C(C)(C)C4=O)cc3)nn2)c(OC)c1	17.5	13.5	16.1	12	57.5
CC(C)=CCC/C(C)=C/CC/C(C)=C/CC[C@@H]1[C@@]2(C)CC/C(=N\OCc3cn(-c4cccc(Br)c4)nn3)C(C)(C)[C@@H]2CC[C@@]1(C)O	15.7	24.8	11.7	14.6	39.8
CC(C)=CCC/C(C)=C/CC/C(C)=C/CC[C@@H]1[C@@]2(C)CC/C(=N\OCc3cn(-c4c(Cl)cc([N+](=O)[O-])cc4Cl)nn3)C(C)(C)[C@@H]2CC[C@@]1(C)O	23	16.6	11.2	16.4	34.9
CC(C)=CCC/C(C)=C/CC/C(C)=C/CC[C@@H]1[C@@]2(C)CC/C(=N\OCc3cn(-c4ccccc4C#N)nn3)C(C)(C)[C@@H]2CC[C@@]1(C)O	21.2	24.9	19.9	25.1	21.9

— ChEMBL document CHEMBL3785005, “Novel triazole hybrids of myrrhanone C, a natural polypodane triterpene: Synthesis, cytotoxic activity and cell based studies” (Eur J Med Chem, 2016)
